Assays:
Type in all cases: in vivo
[1] = tested on: Diabrotica balteata (Corn Root Worm); assay: Example B1: Diabrotica balteata (corn root worm), sprayed maize sprouts on agar, L2 larvae; conditions: 96 h, application rate of 200 ppm, 4 days after infestation, in comparison to untreated samples, read-out: effect in at least one of the two categories (mortality or growth inhibition)
Experimental: Example B1: Diabrotica balteata (Corn Root Worm
Maize sprouts placed onto an agar layer in 24-well microtiter plates were treated with aqueous test solutions prepared from 10′000 ppm DMSO stock solutions by spraying. After drying, the plates were infested with L2 larvae (6 to 10 per well). The samples were assessed for mortality and growth inhibition in comparison to untreated samples 4 days after infestation.

[2] = tested on: Spodoptera littoralis (Egyptian Cotton Leaf Worm); assay: Example B7: Spodoptera littoralis (Egyptian cotton leaf worm), sprayed cotton leaf discs, L1 larvae; conditions: foliar, 72 h, application rate of 200 ppm, 3 days after infestation, in comparison to untreated samples
Experimental: Example B7: Spodoptera littoralis (Egyptian Cotton Leaf Worm
Cotton leaf discs were placed onto agar in 24-well microtiter plates and sprayed with aqueous test solutions prepared from 10′000 ppm DMSO stock solutions. After drying the leaf discs were infested with five L1 larvae. The samples were assessed for mortality, anti-feeding effect, and growth inhibition in comparison to untreated samples 3 days after infestation. Control of Spodoptera littoralis by a test sample is given when at least one of the categories mortality, anti-feedant effect, and growth inhibition is higher than the untreated sample.

[3] = tested on: Plutella xylostella (Diamond Back Moth); assay: Example B4: Plutella xylostella (diamond back moth), treated artificial diet, eggs; conditions: 192 h, application rate of 200 ppm, 8 days after infestation, in comparison to untreated samples, read-out: effect in at least one of the two categories (mortality or growth inhibition)
Experimental: Example B4: Plutella xylostella (Diamond Back Moth
24-well microtiter plates with artificial diet were treated with aqueous test solutions prepared from 10′000 ppm DMSO stock solutions by pipetting. After drying, Plutella eggs were pipetted through a plastic stencil onto a gel blotting paper and the plate was closed with it. The samples were assessed for mortality and growth inhibition in comparison to untreated samples 8 days after infestation.

Structure (SMILES)	percent effect (mortality or growth inhibition) at 200 ppm [1] [%]	percent control (mortality, anti-feeding effect or growth inhibition) at 200 ppm [2] [%]	percent effect (mortality or growth inhibition) at 200 ppm [3] [%]
CCS(=O)(=O)c1cc(N(C)C(C)=O)cnc1-c1nc2cc(S(=N)(=O)C(F)(F)F)ccc2o1 (stereo not shown) [P4, N-[5-ethylsulfonyl-6-[5-(trifluoromethylsulfonimidoyl)-1,3-benzoxazol-2-yl]-3-pyridyl]-N-methyl-acetamide]	≥ 80	≥ 80	≥ 80
CCN=S(=O)(c1ccc2oc(-c3ncc(-n4ccc(C(F)(F)F)n4)cc3S(=O)(=O)CC)nc2c1)C(F)(F)F (stereo not shown) [P5, ethylimino-[2-[3-ethylsulfonyl-5-[3-(trifluoromethyl)pyrazol-1-yl]-2-pyridyl]-1,3-benzoxazol-5-yl]-oxo-(trifluoromethyl)-λ^6-sulfane]	≥ 80		≥ 80
CCS(=O)(=O)c1cc(-n2ccc(C(F)(F)F)n2)cnc1-c1nc2cc(S(=N)(=O)C(F)(F)F)ccc2o1 (stereo not shown) [P6, [2-[3-ethylsulfonyl-5-[3-(trifluoromethyl)pyrazol-1-yl]-2-pyridyl]-1,3-benzoxazol-5-yl]-imino-oxo-(trifluoromethyl)-λ^6-sulfane]	≥ 80	≥ 80	≥ 80
CCS(=O)(=O)c1cccnc1-c1nc2cc(S(=O)(=NCC(F)(F)F)C(F)(F)F)ccc2o1 (stereo not shown) [P14, [2-(3-ethylsulfonyl-2-pyridyl)-1,3-benzoxazol-5-yl]-oxo-(2,2,2-trifluoroethylimino)-(trifluoromethyl)-λ^6-sulfane]	≥ 80	≥ 80	≥ 80
CCS(=O)(=O)c1cccnc1-c1nc2cc(S(=O)(=NC#N)C(F)(F)F)ccc2o1 (stereo not shown) [P15, [[2-(3-ethylsulfonyl-2-pyridyl)-1,3-benzoxazol-5-yl]-oxo-(trifluoromethyl)-λ^6-sulfanylidene]cyanamide]	≥ 80		≥ 80
CCS(=O)(=O)c1cc(OCC(F)(F)F)cnc1-c1nc2cc(S(=N)(=O)C(F)(F)F)ccc2o1 (stereo not shown) [P23, [2-[3-ethylsulfonyl-5-(2,2,2-trifluoroethoxy)-2-pyridyl]-1,3-benzoxazol-5-yl]-imino-oxo-(trifluoromethyl)-λ^6-sulfane]	≥ 80	≥ 80	≥ 80
CCS(=O)(=O)c1cc(C2(C#N)CC2)cnc1-c1nc2cc(S(=O)(=NCC(F)(F)F)C(F)(F)F)ccc2o1 (stereo not drawn) [P28, 1-[5-ethylsulfonyl-6-[5-[N-(2,2,2-trifluoroethyl)-S-(trifluoromethyl)sulfonimidoyl]-1,3-benzoxazol-2-yl]-3-pyridyl]cyclopropanecarbonitrile]	≥ 80	≥ 80	≥ 80
CCS(=O)(=O)c1cc(C2(C#N)CC2)cnc1-c1nc2cc(S(=O)(=NC3CC3)C(F)(F)F)ccc2o1 (stereo not drawn) [P30, 1-[6-[5-[N-cyclopropyl-S-(trifluoromethyl)sulfonimidoyl]-1,3-benzoxazol-2-yl]-5-ethylsulfonyl-3-pyridyl]cyclopropanecarbonitrile]	≥ 80	≥ 80	≥ 80
CCS(=O)(=O)c1cc(-n2ccc(Cl)n2)cnc1-c1nc2cc(S(=N)(=O)C(F)(F)F)ccc2o1 (stereo not shown) [P37, [2-[5-(3-chloropyrazol-1-yl)-3-ethylsulfonyl-2-pyridyl]-1,3-benzoxazol-5-yl]-imino-oxo-(trifluoromethyl)-λ^6-sulfane]	≥ 80	≥ 80	≥ 80
CCN=S(=O)(c1ccc2oc(-c3ncc(-n4ccc(Cl)n4)cc3S(=O)(=O)CC)nc2c1)C(F)(F)F (stereo not shown) [P38, [2-[5-(3-chloropyrazol-1-yl)-3-ethylsulfonyl-2-pyridyl]-1,3-benzoxazol-5-yl]-ethylimino-oxo-(trifluoromethyl)-λ^6-sulfane]	≥ 80	≥ 80	≥ 80
CCN=S(=O)(c1ccc2oc(-c3nc(-n4cncn4)ccc3S(=O)(=O)CC)nc2c1)C(F)(F)F (stereo not shown) [P39, ethylimino-[2-[3-ethylsulfonyl-6-(1,2,4-triazol-1-yl)-2-pyridyl]-1,3-benzoxazol-5-yl]-oxo-(trifluoromethyl)-λ^6-sulfane]	≥ 80		
CCN=S(=O)(c1ccc2oc(-c3ncc(-c4nccc(C(F)(F)F)n4)cc3S(=O)(=O)CC)nc2c1)C(F)(F)F (stereo not shown) [P41, ethylimino-[2-[3-ethylsulfonyl-5-[4-(trifluoromethyl)pyrimidin-2-yl]-2-pyridyl]-1,3-benzoxazol-5-yl]-oxo-(trifluoromethyl)-λ^6-sulfane]	≥ 80	≥ 80	≥ 80
CCN=S(=O)(c1ccc2oc(-c3ncc(-c4ncc(Cl)cn4)cc3S(=O)(=O)CC)nc2c1)C(F)(F)F (stereo not shown) [P43, [2-[5-(5-chloropyrimidin-2-yl)-3-ethylsulfonyl-2-pyridyl]-1,3-benzoxazol-5-yl]-ethylimino-oxo-(trifluoromethyl)-λ^6-sulfane]	≥ 80	≥ 80	≥ 80
CCS(=O)(=O)c1ccc(-n2cnc(Cl)n2)nc1-c1nc2cc(S(=N)(=O)C(F)(F)F)ccc2n1C (stereo not shown) [P46, [2-[6-(3-chloro-1,2,4-triazol-1-yl)-3-ethylsulfonyl-2-pyridyl]-1-methyl-benzimidazol-5-yl]-imino-oxo-(trifluoromethyl)-λ^6-sulfane]	≥ 80	≥ 80	≥ 80
CCN=S(=O)(c1ccc2c(c1)nc(-c1nc(-n3cnc(Cl)n3)ccc1S(=O)(=O)CC)n2C)C(F)(F)F (stereo not shown) [P47, [2-[6-(3-chloro-1,2,4-triazol-1-yl)-3-ethylsulfonyl-2-pyridyl]-1-methyl-benzimidazol-5-yl]-ethylimino-oxo-(trifluoromethyl)-λ^6-sulfane]	≥ 80	≥ 80	≥ 80
CCS(=O)(=O)c1ccc(-n2cnc(C(F)(F)F)n2)nc1-c1nc2cc(S(=N)(=O)C(F)(F)F)ccc2n1C (stereo not shown) [P48, [2-[3-ethylsulfonyl-6-[3-(trifluoromethyl)-1,2,4-triazol-1-yl]-2-pyridyl]-1-methyl-benzimidazol-5-yl]-imino-oxo-(trifluoromethyl)-λ^6-sulfane]	≥ 80	≥ 80	≥ 80
CCS(=O)(=O)c1ccc(-n2cncn2)nc1-c1nc2cc(S(=N)(=O)C(F)(F)F)ccc2o1 (stereo not shown) [P56, [2-[3-ethylsulfonyl-6-(1,2,4-triazol-1-yl)-2-pyridyl]-1,3-benzoxazol-5-yl]-imino-oxo-(trifluoromethyl)-λ^6-sulfane]	≥ 80		≥ 80

— patent publication US12503461B2, “Pesticidally active heterocyclic derivatives with sulfur and sulfoximine containing substituents” (SYNGENTA CROP PROTECTION AG, priority 2019, dated 2025)
